PubChem BioAssay AID256 (DTP/NCI, 2004)
Values joined by “and” are separate entries in the source; they are usually repeats but may differ in a detail not shown here. Equal values may be shown once. Toxic doses and inconclusive results are not listed. Rule for the calls: active = survival T/C of 150% or more; inactive = T/C below 125% in these data.

Test system: CD2F1 mice, L1210 leukemia ip, survival T/C
Experiment: NCI In Vivo Anticancer Drug Screen. Data for tumor model L1210 Leukemia (intraperitoneal) in CD2F1 (CDF1) mice
Conditions: endpoint: mean survival time, higher = longer survival
Procedure, shortened: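 Implant tumor; dose compound or vehicle; measure endpoint in both groups; report treated divided by control.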

[1] = dose: 50.0 mg/kg/injection, schedule: Q01DX009 (ip), vehicle: saline with Tween-80
[2] = dose: 100.0 mg/kg/injection, schedule: Q01DX009 (ip), vehicle: saline with Tween-80
[3] = dose: 200.0 mg/kg/injection, schedule: Q01DX009 (ip), vehicle: saline with Tween-80
[4] = dose: 100.0 mg/kg/injection, schedule: Q04DX003 (ip), vehicle: saline
[5] = dose: 100.0 mg/kg/injection, schedule: Q01DX001 (ip), vehicle: saline with Tween-80
[6] = dose: 200.0 mg/kg/injection, schedule: Q01DX001 (ip), vehicle: saline with Tween-80
[7] = dose: 400.0 mg/kg/injection, schedule: Q01DX001 (ip), vehicle: saline with Tween-80
[8] = dose: 100.0 mg/kg/injection, schedule: Q04DX002 (ip), vehicle: saline with Tween-80
[9] = dose: 200.0 mg/kg/injection, schedule: Q04DX003 (ip), vehicle: saline
[10] = dose: 400.0 mg/kg/injection, schedule: Q04DX003 (ip), vehicle: saline
[11] = dose: 100.0 mg/kg/injection, schedule: Q01DX001 (ip), vehicle: saline
[12] = dose: 400.0 mg/kg/injection, schedule: Q01DX009 (ip), vehicle: saline with Tween-80
[13] = dose: 100.0 mg/kg/injection, schedule: Q04DX003 (ip), vehicle: saline with Tween-80
[14] = dose: 200.0 mg/kg/injection, schedule: Q04DX003 (ip), vehicle: saline with Tween-80
[15] = dose: 400.0 mg/kg/injection, schedule: Q04DX003 (ip), vehicle: saline with Tween-80

Measured: T/C

CC(CC(=O)Nc1ccc(S(=O)(=O)F)cc1)c1ccc(N2C(N)=NC(N)=NC2(C)C)cc1 (configuration not stated)
inactive: dose: 12.5 mg/kg/injection, schedule: Q01DX009 (ip), vehicle: saline 109 % of control | dose: 25.0 mg/kg/injection, schedule: Q01DX009 (ip), vehicle: saline 109 % of control | dose: 50.0 mg/kg/injection, schedule: Q01DX009 (ip), vehicle: saline 113 % of control | dose: 100.0 mg/kg/injection, schedule: Q01DX009 (ip), vehicle: saline 113 % of control | dose: 100.0 mg/kg/injection, schedule: Q#A X018 (ip), vehicle: saline 116 % of control | dose: 150.0 mg/kg/injection, schedule: Q#A X018 (ip), vehicle: saline 119 % of control | dose: 200.0 mg/kg/injection, schedule: Q01DX009 (ip), vehicle: saline 113 % of control and 121 % of control | dose: 300.0 mg/kg/injection, schedule: Q01DX009 (ip), vehicle: saline 118 % of control | dose: 400.0 mg/kg/injection, schedule: Q01DX009 (ip), vehicle: saline 124 % of control

CCOP(=S)(OCC)S/C(C(=O)NC)=C(/C)O
inactive: dose: 100.0 mg/kg/injection, schedule: Q04DX003 (sc), vehicle: Klucel + Tween-80 96 % of control | dose: 200.0 mg/kg/injection, schedule: Q04DX003 (sc), vehicle: Klucel + Tween-80 100 % of control | dose: 400.0 mg/kg/injection, schedule: Q04DX003 (sc), vehicle: Klucel + Tween-80 115 % of control | dose: 600.0 mg/kg/injection, schedule: Q04DX003 (sc), vehicle: Klucel + Tween-80 96 % of control

CC1(O)OOC(=O)C1(C)C (configuration not stated)
inactive: dose: 5.0 mg/kg/injection, schedule: Q01DX001 (ip), vehicle: saline with Tween-80 91 % of control | dose: 10.0 mg/kg/injection, schedule: Q01DX001 (ip), vehicle: saline with Tween-80 91 % of control | dose: 20.0 mg/kg/injection, schedule: Q01DX001 (ip), vehicle: saline with Tween-80 92 % of control

CN1C(=O)NC(c2ccc(Cl)cc2)(c2ccc(Cl)cc2)C1=O
inactive: dose: 12.5 mg/kg/injection, schedule: Q01DX009 (ip), vehicle: distilled water + Tween-80 93 % of control | dose: 12.5 mg/kg/injection, schedule: Q01DX009 (ip), vehicle: saline with Tween-80 97 % of control | dose: 25.0 mg/kg/injection, schedule: Q01DX009 (ip), vehicle: distilled water + Tween-80 95 % of control | dose: 25.0 mg/kg/injection, schedule: Q01DX009 (ip), vehicle: saline with Tween-80 101 % of control | dose: 50.0 mg/kg/injection, schedule: Q01DX009 (ip), vehicle: distilled water + Tween-80 103 % of control | [1] 101 % of control | dose: 100.0 mg/kg/injection, schedule: Q01DX009 (ip), vehicle: distilled water + Tween-80 98 % of control | [2] 89 % of control | dose: 200.0 mg/kg/injection, schedule: Q01DX009 (ip), vehicle: distilled water + Tween-80 98 % of control | [3] 91 % of control

CCN(CC)Cc1cc(Nc2nc(NC3CCC(N(C)C)CC3)c3ccccc3n2)ccc1OC (configuration not stated)
inactive: dose: 12.5 mg/kg/injection, schedule: Q04DX003 (ip), vehicle: saline 103 % of control | dose: 25.0 mg/kg/injection, schedule: Q04DX003 (ip), vehicle: saline 97 % of control | dose: 50.0 mg/kg/injection, schedule: Q04DX003 (ip), vehicle: saline 105 % of control

CCN(CC)C(=O)c1ccc[n+](Cc2ccc(Cl)cc2)c1
inactive: [4] 102 % of control

CC1(C)CC(O)(C(Cl)c2ccccc2)C(=O)c2ccccc21 (configuration not stated)
inactive: dose: 25.0 mg/kg/injection, schedule: Q01DX009 (ip), vehicle: water 103 % of control | dose: 50.0 mg/kg/injection, schedule: Q01DX009 (ip), vehicle: water 104 % of control | dose: 100.0 mg/kg/injection, schedule: Q01DX009 (ip), vehicle: water 98 % of control | dose: 100.0 mg/kg/injection, schedule: Q04DX003 (ip), vehicle: acetone 98 % of control | dose: 200.0 mg/kg/injection, schedule: Q01DX009 (ip), vehicle: water 109 % of control | dose: 200.0 mg/kg/injection, schedule: Q04DX003 (ip), vehicle: acetone 95 % of control | dose: 400.0 mg/kg/injection, schedule: Q01DX009 (ip), vehicle: water 107 % of control | dose: 400.0 mg/kg/injection, schedule: Q04DX003 (ip), vehicle: acetone 95 % of control

COC(=O)C1C2C=CC(CC2)C1C(=O)OC (configuration not stated)
inactive: [5] 103 % of control | [6] 88 % of control | [7] 103 % of control

CC(C)c1oc(=O)cc2c1C(O)C1OC(=O)C3(C)C(O)C4OC4C2(C)C13 (configuration not stated) (tested in a mixture with another compound)
inactive: [8] 105 % of control

O=[N+]([O-])c1ccc(S(=O)(=O)Cl)c(Cl)c1
inactive: dose: 18.8 mg/kg/injection, schedule: Q01DX009 (ip), vehicle: saline with Tween-80 91 % of control | dose: 37.5 mg/kg/injection, schedule: Q01DX009 (ip), vehicle: saline with Tween-80 100 % of control | dose: 75.0 mg/kg/injection, schedule: Q01DX009 (ip), vehicle: saline with Tween-80 95 % of control | [4] 98 % of control | [9] 89 % of control | [10] 86 % of control

CCOC(=O)c1cc(C[N+](C)(C)C)oc1C
inactive: dose: 25.0 mg/kg/injection, schedule: Q01DX001 (ip), vehicle: saline 96 % of control | dose: 50.0 mg/kg/injection, schedule: Q01DX001 (ip), vehicle: saline 102 % of control | [5] 106 % of control | [11] 98 % of control

OC1COCOC1C1OCOCC1O (configuration not stated)
inactive: [4] 95 % of control | [9] 95 % of control | [10] 97 % of control

COCc1nccc2c1[nH]c1ccccc12
inactive: [2] 92 % of control | [3] 110 % of control | [12] 107 % of control

N#CC(CCC(=O)O)(CCC(=O)O)c1ccccc1
inactive: [2] 96 % of control | [3] 96 % of control | [12] 96 % of control

C[S+](C)CCC1NC(=O)NC1=O (configuration not stated)
inactive: [13] 107 % of control | [4] 98 % of control | [14] 102 % of control | [9] 102 % of control | [15] 93 % of control

CCOC(=O)c1ccc(OC(=O)Nc2cc(C)ccc2C)cc1
inactive: [1] 100 % of control | [5] 103 % of control | [8] 98 % of control and 101 % of control | [13] 97 % of control | [6] 100 % of control | dose: 200.0 mg/kg/injection, schedule: Q04DX002 (ip), vehicle: saline with Tween-80 113 % of control and 109 % of control | [14] 92 % of control | [7] 102 % of control | dose: 400.0 mg/kg/injection, schedule: Q04DX002 (ip), vehicle: saline with Tween-80 114 % of control and 102 % of control | [15] 94 % of control

C=C(C)CS(=O)[O-].[C-]#[O+].[C-]#[O+].[Fe+6].[c-]1[c-][c-][cH-][c-]1
inactive: dose: 6.25 mg/kg/injection, schedule: Q04DX002 (ip), vehicle: saline 97 % of control | dose: 12.5 mg/kg/injection, schedule: Q04DX002 (ip), vehicle: saline 97 % of control | dose: 25.0 mg/kg/injection, schedule: Q04DX002 (ip), vehicle: saline 97 % of control

CC[C+](C)[B-][N+](C)(C)C
inactive: [11] 93 % of control | dose: 200.0 mg/kg/injection, schedule: Q01DX001 (ip), vehicle: saline 98 % of control | dose: 400.0 mg/kg/injection, schedule: Q01DX001 (ip), vehicle: saline 100 % of control
